Test results: patent US20220087996A1, “Histone acetylase p300 inhibitor and use thereof” (HINOVA PHARMACEUTICALS INC., priority 2018, published 2022)
Like-named read-outs stand apart in the source and are kept apart here.

Test system: CWR22RV1 cells
Test: Inhibition of proliferation of CWR22RV1 cells (CCK-8)
Assay type: cell-based, human
Settings: 6 days culture
Description: 1) CWR22RV1 cells were subcultured in cell culture medium, and the cells in good growth condition were seeded in a 96-well plate, 80 μL for each well, and the cell number in each well was 1500. The plate was incubated overnight in a 37° C., 5% CO2 cell incubator. 2) The drug was prepared as 30 mM stock solution with dimethyl sulfoxide (DMSO). Prior to use, the stock solution was diluted 3 times with DMSO, and then further diluted as 3-fold gradient to obtain 9 concentration gradients. Then, each concentration of compound was diluted 200 times with the culture solution (ensuring that the DMSO concentration in the culture system was 0.1%), and two replicate wells were set for each concentration. 20 μL of diluted compound solution was added to the cell culture well (with final concentrations of 10 μM, 3.3 μM. 1.1 μM . . . ), and the plate was gently shaken to mix. In addition, 3 negative control wells containing only cells and 3 blank control wells containing only culture medium were included (6 wells were each added 20 μL DMSO diluted 200 times with culture medium). 2. Result detection: (1) After culturing for 6 days, 10 μL CCK-8 was added to each well, and the plate was continually cultured in a 37° C., 5% CO2 cell incubator for 2.5 h. (2) The absorbance (OD value) was detected at 450 nm using a multifunctional microplate reader. (3) The data were analyzed by Dose-response-inhibition equation in the software GraphPad Prism6, and the IC50 value was obtained.

[1] = read-out: IC50 against CWR22RV1 cells
[2] = Homo sapiens, CWR22Rv1, 144 h, read-out: IC50 against CWR22RV1 cells
[3] = Homo sapiens, CWR22Rv1, 144 h, read-out: IC50 against CWR22RV1 cells (text)

1-(2′,4′-dioxo-3′-(2-oxo-2-((S)-2-phenylpyrrolidin-1-yl)ethyl)-2,3-dihydrospiro[cyclopropane-indene-1,5′-oxazolidine]-5-yl)-3-methylurea [Example 325]
IC50 [1]: > 2000 nM

CNC(=O)Nc1ccc2c(c1)CC[C@@]21OC(=O)N(CC(=O)N2C(c3ccc(F)cc3)CC[C@@H]2CO)C1=O (mixture of isomers) [Example 360, 1-((R)-3′-(2-((R)-2-(4-fluorophenyl)-5-(hydroxymethyl)pyrrolidin-1-yl)-2-oxoethyl)-2′,4′-dioxo-2,3-dihydrospiro[indene-1,5′-oxazolidine]-5-yl)-3-methylurea]
IC50 [2]: > 2000 nM

CNC(=O)Nc1ccc2c(c1)CC[C@@]21OC(=O)N(CC(=O)N2CCCC2c2ccccc2OC)C1=O (single isomer, unassigned) [Example 338]
IC50 [2]: > 2000 nM

CNC(=O)Nc1ccc2c(c1)CC[C@@]21OC(=O)N(CC(=O)N2C(c3ccc(F)c(Cl)c3)CC[C@@H]2C)C1=O (stereo in doubt) [Example 369, 1-((R)-3′-(2-((2R,5S)-2-(3-chloro-4-fluorophenyl)-5-methylpyrrolidin-1-yl)-2-oxoethyl)-2′,4′-dioxo-2,3-dihydrospiro[indene-1,5′-oxazolidine]-5-yl)-3-methylurea]
IC50 [1]: > 2000 nM

CNC(=O)Nc1ccc2c(c1)CC[C@]21OC(=O)N(CC(=O)N2CCCC[C@@H]2c2ccccc2)C1=O [Example 1]
IC50 [2]: > 2000 nM

CNC(=O)Nc1ccc2c(c1)CC[C@@]21OC(=O)N(CC(=O)N2CCCC[C@@H]2c2ccccc2)C1=O [Example 2]
IC50 [2]: > 2000 nM

CNC(=O)Nc1ccc2c(c1)CC[C@@]21OC(=O)N(CC(=O)N2C3CCCC2CC3)C1=O [Example 3]
IC50 [2]: > 2000 nM

CNC(=O)Nc1ccc2c(c1)CC[C@]21OC(=O)N(CC(=O)N2CCCC[C@H]2c2ccccc2)C1=O [Example 4]
IC50 [2]: > 2000 nM

CNC(=O)Nc1ccc2c(c1)CC[C@@]21OC(=O)N(CC(=O)N2CCCC[C@H]2c2ccccc2)C1=O [Example 5, 1-((R)-2′,4′-dioxo-3′-(2-oxo-2-((S)-2-phenylpiperidin-1-yl)ethyl)-2,3-dihydrospiro[indene-1,5-oxazolidine]-5-yl)-3-methylurea]
IC50 [2]: > 2000 nM

CNC(=O)Nc1ccc2c(c1)CC[C@@]21OC(=O)N(CC(=O)N2C3CCC2CC3)C1=O [Example 7, 1-((R)-3′-(2-((1S,4S)-7-azabicyclo[2.2.1]heptan-7-yl)-2-oxoethyl)-2′,4′-dioxo-2,3-dihydrospiro[indene-1,5′-oxazolidine]-5-yl)-3-methylurea]
IC50 [2]: > 2000 nM

CNC(=O)Nc1ccc2c(c1)CC[C@@]21OC(=O)N(CC(=O)N2CCC[C@H]2c2ccc(F)cc2C)C1=O [Example 8, 1-((R)-3′-(2-((S)-2-(4-fluoro-2-methylphenyl)pyrrolidin-1-yl)-2-oxoethyl)-2′,4′-dioxo-2,3-dihydrospiro[indene-1,5′-oxazolidine]-5-yl)-3-methylurea]
IC50 [2]: 500 to 2000 nM

CNC(=O)Nc1ccc2c(c1)CC[C@@]21OC(=O)N(CC(=O)N2C[C@@H]3C[C@H]2CN3C(=O)OC(C)(C)C)C1=O [Example 10, (1S,4S)-5-(2-((R)-5-(3-methylureido)-2′,4′-dioxo-2,3-dihydrospiro[indene-1,5′-oxazolidine]t-butyl-3′-yl)acetyl)-2,5-diazabicyclo[2.2.1]heptane-2-carboxylic Acid t-Butyl Ester]
IC50 [1]: > 2000 nM

CNC(=O)Nc1ccc2c(c1)CC[C@@]21OC(=O)N(CC(=O)N2CCCC2c2ccccc2C)C1=O (stereo partly drawn) [Example 11, 1-((1R)-2′,4′-dioxo-3′-(2-oxo-2-(2-(o-tolyl)pyrrolidin-1-yl)ethyl)-2,3-dihydrospiro[indene-1,5′-oxazolidine]-5-yl)-3-methylurea]
IC50 [1]: 500 to 2000 nM

CNC(=O)Nc1ccc2c(c1)CC[C@@]21OC(=O)N(CC(=O)N2CCCC3CCCCC32)C1=O (stereo partly drawn) [Example 12, 1-methyl-3-((1R)-3′-(2-(octahydroquinolin-1-(2H)-yl)-2-oxoethyl)-2′,4′-dioxo-2,3-dihydrospiro[indene-1,5′-oxazolidine]-5-yl)urea]
IC50 [2]: > 2000 nM

CNC(=O)Nc1ccc2c(c1)CC[C@@]21OC(=O)N(CC(=O)N2CCCC2c2ccccc2OC(F)(F)F)C1=O (stereo partly drawn) [Example 13, 1-((1R)-2′,4′-dioxo-3′-(2-oxo-2-(2-(2-(trifluoromethoxyl)phenyl)pyrrolidin-1-yl)ethyl)-2,3-dihydrospiro[indene-1,5′-oxazolidine]-5-yl)-3-methylurea]
IC50 [2]: > 2000 nM

CNC(=O)Nc1ccc2c(c1)CC[C@@]21OC(=O)N(CC(=O)N2C(c3ccc(F)cc3)CC[C@@H]2C)C1=O (stereo partly drawn) [Example 15, 1-((R)-3′-(2-((5S)-2-(4-fluorophenyl)-5-methylpyrrolidin-1-yl)-2-oxoethyl)-2′,4′-dioxo2,3-dihydrospiro[indene-1,5′-oxazolidine]-5-yl)-3-methylurea]
IC50 [2]: ≤ 500 nM
IC50 [3]: ≤ 500 nM

CNC(=O)Nc1ccc2c(c1)CCC21OC(=O)N(CC(=O)N2CC3CCC2C3)C1=O (stereo not shown) [Example 16, 1-(3′-(2-(2-azabicyclo[2.2.1]heptan-2-yl)-2-oxoethyl)-2′,4′-dioxo-2,3-dihydrospiro[indene-1,5′-oxazolidine]-5-yl)-3-methylurea]
IC50 [2]: > 2000 nM

CNC(=O)Nc1ccc2c(c1)CC[C@@]21OC(=O)N(CC(=O)N2C(c3ccc(F)cc3)CC[C@H]2C)C1=O (stereo partly drawn) [Example 18, 1-((R)-3′-(2-((5R)-2-(4-fluorophenyl)-5-methylpyrrolidin-1-yl)-2-oxoethyl)-2′,4′-dioxo-2,3-dihydrospiro[indene-1,5′-oxazolidine]-5-yl)-3-methylurea]
IC50 [2]: ≤ 500 nM
IC50 [3]: ≤ 500 nM

CNC(=O)Nc1ccc2c(c1)CC[C@@]21OC(=O)N(CC(=O)N2C(c3ccc(F)cc3)CCC2(C)C)C1=O (stereo partly drawn) [Example 39, 1-((R)-3′-(2-(5-(4-fluorophenyl)-2,2-dimethylpyrrolidin-1-yl)-2-oxoethyl)-2′,4′-dioxo-2,3-dihydrospiro[indene-1,5′-oxazolidine]-5-yl)-3-methylurea]
IC50 [1]: 500 to 2000 nM

CNC(=O)Nc1ccc2c(c1)C1(CC1)CC21OC(=O)N(CC(=O)N2C(C)CCC2c2ccc(F)cc2)C1=O (stereo not shown) [Example 97, 1-(3′-(2-(2-(4-fluorophenyl)-5-methylpyrrolidin-1-yl)-2-oxoethyl)-2′,4′-dioxo-2,3-dihydrospiro[cyclopropane-1,1′-indene-1,5′-oxazolidine]-5-yl)-3-methylurea]
IC50 [2]: > 2000 nM

CNC(=O)Nc1ccc2c(c1)CC[C@@]21OC(=O)N(CC(=O)N[C@]23C[C@H]4C[C@H](C[C@H](C4)C2)C3)C1=O [Example 99]
IC50 [2]: > 2000 nM

CNC(=O)Nc1ccc2c(c1)CC[C@@]21OC(=O)N(CC(=O)N2CCc3ccccc3C2)C1=O [Example 100, (R)-1-(3′-(2-(3,4-dihydroisoquinolin-2(1H)-yl)-2-oxoethyl)-2′,4′-dioxo-2,3-dihydrospiro[indene 1,5′-oxazolidine]-5-yl)-3-methylurea]
IC50 [2]: > 2000 nM

CNC(=O)Nc1ccc2c(c1)CC[C@@]21OC(=O)N(CC(=O)N2C[C@@H]3C[C@@H]2CO3)C1=O [Example 103]
IC50 [2]: > 2000 nM

CNC(=O)Nc1ccc2c(c1)CC[C@@]21OC(=O)N(CC(=O)NC2C(C)(C)C(O)C2(C)C)C1=O (stereo partly drawn) [Example 105, (R)—N-(3-hydroxyl-2,2,4,4-tetramethylcyclobutyl)-2-(5-(3-Methylureido)-2′,4′-dioxo-2,3-dihydrospiro[indene-1,5′-oxazole]-3′-yl)acetamide]
IC50 [2]: > 2000 nM

CNC(=O)Nc1ccc2c(c1)CC[C@@]21OC(=O)N(CC(=O)N2CCC2c2ccccc2)C1=O (stereo partly shown) [Example 106]
IC50 [2]: > 2000 nM

CNC(=O)Nc1ccc2c(c1)CC[C@@]21OC(=O)N(CC(=O)N2CCOC[C@@H]2c2ccccc2)C1=O [Example 107]
IC50 [2]: > 2000 nM

CNC(=O)Nc1ccc2c(c1)CC[C@@]21OC(=O)N(CC(=O)N2C(C(C)(C)C)OC[C@@H]2c2ccccc2)C1=O (stereo partly shown) [Example 108]
IC50 [2]: > 2000 nM

CNC(=O)Nc1ccc2c(c1)CC[C@@]21OC(=O)N(CC(=O)N2CCCc3cc(-c4ccn(C)n4)c(C(F)(F)F)cc32)C1=O [Example 109, (R)-1-methyl-3-(3′-(2-(6-(1-methyl-1H-pyrazol-3-yl)-7-(trifluoromethyl)-3,4-dihydroquinolin-1-(2H)-yl)-2-oxoethyl)-2′,4′-dioxo-2,3-dihydrospiro[indene-1,5′-oxazolidine]-5-yl)urea]
IC50 [2]: > 2000 nM

CNC(=O)Nc1ccc2c(c1)CC[C@@]21OC(=O)N(Cc2ncc(-c3ccccc3)[nH]2)C1=O [Example 110, (R)-1-(2′,4′-dioxo-3′-((5-phenyl-1H-imidazol-2-yl)methyl)-2,3-dihydrospiro[indene-1,5′-oxazolidine]-5-yl)-3-methylurea]
IC50 [2]: > 2000 nM

CNC(=O)Nc1ccc2c(c1)CC[C@@]21OC(=O)N(CC(=O)N2CCCC2c2nccn2C)C1=O (stereo partly shown) [Example 111]
IC50 [2]: > 2000 nM

CNC(=O)Nc1ccc2c(c1)CC[C@@]21OC(=O)N(CC(=O)N2CCCC2c2cccc3c2OCO3)C1=O (stereo partly shown) [Example 112]
IC50 [2]: > 2000 nM

Cc1nnn(C)c1-c1ccc2c(c1)CC[C@@]21OC(=O)N(CC(=O)N2[C@@H](C)CC[C@H]2c2ccc(F)cc2)C1=O [Example 221, (R)-5-(1,4-dimethyl-1H-1,2,3-triazole-5-yl)-3′-(2-((2S,5S)-2-(4-fluorophenyl)-5-methylpyrrolidin-1-yl)-2-oxoethyl)-2,3-dihydrospiro[indene-1,5′-oxazolidine]-2′,4′-dione]
IC50 [2]: > 2000 nM
